Results: ChEMBL document CHEMBL1201862, “PubChem BioAssay data set” (2004)
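Results reflect a 48-hour exposure of cells in 96-well plates to compound at five concentrations. GI50 marks 50% less growth.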 The source made the active and inactive calls. No stated cut-off is given here; in the data, active = GI50 up to about 1.1 µM and inactive = higher.

How the values were obtained:
Test in all cases: growth of human tumour cells (NCI), 48 h
SNB-78 = test system: SNB-78
DMS-273 = test system: DMS-273
DMS-114 = test system: DMS-114
XF498 = test system: XF498
LXFL 529 = test system: LXFL 529
KM-20L2 = test system: KM-20L2
M19-MEL = test system: M19-MEL
HOP-18 = test system: HOP-18
RXF 631 = test system: RXF 631

SMILES | GI50 (SNB-78) | GI50 (DMS-273) | GI50 (DMS-114) | GI50 (XF498) | GI50 (LXFL 529) | GI50 (KM-20L2) | GI50 (M19-MEL) | GI50 (HOP-18) | GI50 (RXF 631)
CC(=O)O[C@H]1CCC2[C@@H]3CCC4C(=O)c5oncc5C[C@]4(C)C3CC[C@@]21C (stereo partly drawn) | 49 µM (inactive) | > 100 µM (inactive) | > 100 µM (inactive) | > 100 µM (inactive) | > 100 µM (inactive) | > 100 µM (inactive) | > 100 µM (inactive) |  | 
O=C(c1ccccc1)[C@@H]1C[C@H](Sc2ccccc2)c2cc(Cl)ccc2N1 | 36.9 µM (inactive) | 24 µM (inactive) | 21.1 µM (inactive) | 18.9 µM (inactive) | 24 µM (inactive) | 26.9 µM (inactive) | 30.1 µM (inactive) | > 100 µM (inactive) | 28.1 µM (inactive)
OCCCc1cnco1 | > 100 µM (inactive) | > 100 µM (inactive) |  | > 100 µM (inactive) | > 100 µM (inactive) | > 100 µM (inactive) | > 100 µM (inactive) | > 100 µM (inactive) | 
CCOC(=O)Nc1ccc(S(=O)(=O)I)cc1.CCOC(=O)Nc1ccc(S(=O)(=O)I)cc1.CNC(=O)N=O.NC(=O)OCCCl | > 100 µM (inactive) |  | > 100 µM (inactive) | > 100 µM (inactive) | > 100 µM (inactive) | > 100 µM (inactive) |  |  | > 100 µM (inactive)
C=CCNC(=O)ON1C(=O)CCC1=O | > 100 µM (inactive) | > 100 µM (inactive) | > 100 µM (inactive) |  | > 100 µM (inactive) | > 100 µM (inactive) | > 100 µM (inactive) | > 100 µM (inactive) | 
CC(=O)NC(CCCCNC(=O)OCc1ccccc1)C(=O)NCc1ccccc1 (stereo not drawn) | 88.9 µM (inactive) | > 100 µM (inactive) | > 100 µM (inactive) | > 100 µM (inactive) | > 100 µM (inactive) | > 100 µM (inactive) | > 100 µM (inactive) |  | 
COc1ccc(C(=O)O/N=C2/CCC/C2=C\c2ccccc2)cc1 | > 68.5 µM (inactive) | > 100 µM (inactive) | > 100 µM (inactive) | > 100 µM (inactive) | > 100 µM (inactive) | > 100 µM (inactive) | > 100 µM (inactive) | > 100 µM (inactive) | > 100 µM (inactive)
C=C(CCCO)[C@@H]1CC[C@@](C)(O)[C@H]1C | > 100 µM (inactive) | > 100 µM (inactive) | > 100 µM (inactive) | > 100 µM (inactive) | > 100 µM (inactive) | > 100 µM (inactive) | > 100 µM (inactive) | > 100 µM (inactive) | > 100 µM (inactive)
Nc1ccc(C(=O)NN2C(=O)C(Cl)C2c2ccccc2)cc1 (stereo not drawn) | > 100 µM (inactive) | > 100 µM (inactive) | > 100 µM (inactive) | > 100 µM (inactive) | > 100 µM (inactive) | > 100 µM (inactive) | > 100 µM (inactive) |  | 
COc1cc(/C=C2/C(=O)N(C(=O)OCc3ccccc3)C(Cc3cc(OC)c(OC)c(C)c3OC)C(=O)N2Cc2ccccc2)c(OC)c(C)c1OC (stereo not drawn) |  | 40.6 µM (inactive) | 54.6 µM (inactive) |  | 9.42 µM (inactive) | > 100 µM (inactive) | 69.7 µM (inactive) | 95.3 µM (inactive) | > 100 µM (inactive)
Oc1ncc(N(CCCl)CCCl)c(O)n1 [URACIL MUSTARD] | 79.6 µM (inactive) | 4.55 µM (inactive) | 14 µM (inactive) | 23 µM (inactive) | 71.4 µM (inactive) | 69.5 µM (inactive) | 63.2 µM (inactive) | 51.6 µM (inactive) | 
O=C1O/C(=C(/c2ccc(Cl)cc2)c2nc3ccccc3[nH]2)C(O)=C1c1ccc(Cl)cc1 | 4 µM (inactive) | 2.08 µM (inactive) | 1.24 µM (inactive) |  | 2.65 µM (inactive) | 2.38 µM (inactive) |  | 2.09 µM (inactive) | 0.891 µM (active)
CS/C(=N/C(=O)c1ccccc1)SCCS/C(=N\C(=O)c1ccccc1)SC | 66.8 µM (inactive) | > 100 µM (inactive) | 90.4 µM (inactive) | > 100 µM (inactive) | > 100 µM (inactive) | > 100 µM (inactive) | > 100 µM (inactive) |  | > 100 µM (inactive)
